Results on two molecules are retold here after patent US20240329056A1, “COMPONENT ASSAY FOR ALZHEIMER'S DISEASE IN A LIVING SUBJECT” (CASSAVA SCIENCES, INC., priority 2021, published 2024).

As usually defined, the half-life is the time in which the quantity being followed falls by half. A high value points to slow loss.

One series concerns cytokine release. The settings on record: Wang et al., J. Neurosci. 2012; cited from earlier work.
The test system of series [1] is cerebrospinal fluid biomarkers of Alzheimer's disease pathology, neurodegeneration and neuroinflammation. The experiment in a line: Phase 2a clinical trial, cerebrospinal fluid and plasma biomarkers. The series is classed as in vivo, human. An excerpt: A small Phase 2a clinical trial that utilized a contemplated prognostic method along with other methodologies was first reported in the fall of 2019. The results of that trial were thereafter reported at Clinical Trials on Alzheimer's Disease (CTAD), December 4-7th, 2019 in San Diego, CA, and were published as Wang et al., J Prev Alzheimers Dis published 7 Feb. 2020. The use of the assay disclosed herein was neither shown nor discussed in that article.
(§1) Briefly, the study included 13 mild-to-moderate Alzheimer's disease patients, age 50-85, Mini Mental State Exam≥16 and ≤24 with a cerebrospinal fluid total tau/Aβ42 ratio […]. A pharmaceutical composition containing 100 mg of simufilam (PTI-125) in an orally administered tablet were given to the patients twice daily for 28 consecutive days. The study was conducted at five sites in the U.S. under an Investigational New Drug (IND) application.
Consistent with the drug's mechanism of action and preclinical data, the simufilam (PTI-125) reduced cerebrospinal fluid biomarkers of Alzheimer's disease pathology, neurodegeneration and neuroinflammation from baseline to Day 28.
Total tau, neurogranin, and neurofilament light chain decreased by 20%, 32% and 22%, respectively. Phospho-tau (pT181) decreased 34%, evidence that the compound suppresses tau hyperphosphorylation induced by Aβ42's signaling through α7-nicotinic acetylcholine receptor. Cerebrospinal fluid biomarkers of neuroinflammation (YKL-40 and inflammatory cytokines) decreased by 5-14%. Biomarker effects were similar in plasma.
This increase is consistent with the compound's 1,000-fold reduction of Aβ42's femtomolar binding affinity to α7-nicotinic acetylcholine receptor.

In series [2] the test system is Aβ42 complexes with α7-nicotinic acetylcholine receptor. The experiment in a line: Phase 2a trial, Aβ42 complexes with α7-nicotinic acetylcholine receptor. It is filed as in vivo, human. The settings on record: after 28 days of treatment. How it is done: as §1
(§2) Biomarker reductions were at least p 0.001 by paired “t” test. Target engagement was shown in lymphocytes by a shift in filamin A's conformation from aberrant to native: 93% was aberrant on Day 1 vs. 40% on Day 28.

For series [3], the system named is about 90 kDa FLNA polypeptide fragment. The experiment in a line: Phase 2a trial, about 90 kDa FLNA polypeptide fragment in plasma. The settings on record: group of 13 patients, P<0.01. The series is classed as in vivo, human. How it is done:
FIG. 13 is a graph showing the amounts in arbitrary units of the about 90 kDa FLNA polypeptide fragment found in the plasma of 13 AD patients in a Phase 2a clinical trial who were treated with a medicament twice daily for 28 days and had their blood plasma assayed on days 0, 14 and 28 for the presence and amount of the about 90 kDa FLNA polypeptide fragment.
as §1
An assay for the presence and amount of the about 90 kDa FLNA polypeptide fragment in the plasma of each patient was also separately determined on days 0, 14 and 28 of the trial. […] Those results are shown graphically in FIG. 13 and indicate that the treatment appeared to be effective and was in agreement with the more standard assays.

Series [4] is described as follows: Phase 2a trial, plasma pharmacokinetics. The series is classed as in vivo, human. The method, then:
as §1

The subject of a further series is Aβ42 complexes with CD14. The experiment in a line: Phase 2a trial, Aβ42 complexes with CD14. It is filed as in vivo, human. The conditions noted are these: after 28 days of treatment. The method, then: as §1, §2
For series [5], the target named is α7-nicotinic acetylcholine receptor (Homo sapiens, UniProt P36544). The conditions noted are these: cited from earlier work.
α7-nicotinic acetylcholine receptor, sequence (P36544 23-502): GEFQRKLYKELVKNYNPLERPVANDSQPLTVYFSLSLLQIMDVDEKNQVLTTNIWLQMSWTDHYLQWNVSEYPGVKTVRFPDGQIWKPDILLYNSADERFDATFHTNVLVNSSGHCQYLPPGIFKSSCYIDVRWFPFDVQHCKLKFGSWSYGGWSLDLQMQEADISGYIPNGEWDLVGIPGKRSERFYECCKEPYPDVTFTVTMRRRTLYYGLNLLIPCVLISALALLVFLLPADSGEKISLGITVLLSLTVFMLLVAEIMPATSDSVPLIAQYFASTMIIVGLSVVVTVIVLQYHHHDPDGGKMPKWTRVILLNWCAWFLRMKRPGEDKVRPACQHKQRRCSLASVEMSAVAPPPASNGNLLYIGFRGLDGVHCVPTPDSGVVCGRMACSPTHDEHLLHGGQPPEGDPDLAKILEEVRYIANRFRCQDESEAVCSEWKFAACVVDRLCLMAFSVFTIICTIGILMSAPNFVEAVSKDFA
The target in series [6] is T1, filamin A linkages with toll-like receptor 4 (Homo sapiens, UniProt P21333).
T1 construct: filamin A linkages with α7-nicotinic acetylcholine receptor and toll-like receptor 4; endogenous in cells; host or cells: patients' lymphocytes
Description: Phase 2a trial, filamin A linkage with toll-like receptor 4. The series is classed as in vivo. The settings on record: after 28 days of treatment. The method, then: as §1, §2

Another series concerns the target T2, filamin A (Homo sapiens, UniProt P21333).
T2 construct: endogenous in cells; host or cells: patients' lymphocytes
The experiment in a line: Phase 2a trial, target engagement in lymphocytes: filamin A conformation. The series is classed as in vivo. The method, then: as §1, §2

Series [7] has as its target FLNA association with toll-like receptor 4 (TLR4) (Homo sapiens, UniProt P21333). The settings on record: Wang et al., J. Neurosci. 2012; cited from earlier work.
Series [8] is described as follows: Phase 2a trial, safety and tolerability. The series is classed as in vivo, human. The settings on record: all patients, 100 mg twice daily for 28 days. How it is done: as §1
The target in series [9] is T3, filamin A linkages with α7-nicotinic acetylcholine receptor (Homo sapiens, UniProt P21333).
T3 construct: filamin A linkages with α7-nicotinic acetylcholine receptor and toll-like receptor 4; endogenous in cells; host or cells: patients' lymphocytes
The experiment in a line: Phase 2a trial, filamin A linkage with α7-nicotinic acetylcholine receptor. The series is classed as in vivo. The conditions noted are these: after 28 days of treatment. The method, then:
as §1, §2

Series [10] deals with prefrontal cortex and hippocampus brain slices. The experiment in a line: Ex vivo organotypic brain slice culture with Aβ42 exposure. The conditions noted are these: rat brain slices, serum-deprived, 100 μM Aβ1-42. The series is classed as cell-based. The method, then: We hypothesize that the 90-kDa pS^2152FLNA fragment is derived from degenerated and ruptured neurons in the brain.
Using two brain regions known to be vulnerable to AD damage, 200-μm sections of prefrontal cortex and hippocampus were prepared from 10-week-old rats. These brain slices were cultured as described previously (Wang et al., above) for 4 days to permit recovery of slice preparation damage. These slices were then serum-deprived and incubated with 100 μM Aβ1-42 (Aβ42).
The presence of the 90-kDa pS^2152-FLNA fragments and pS^2152-FLNA protein, as well as other biomarkers that reflect neuronal destruction, nitrated tau (nY^29-tau) and glial damage [truncated glial fibrillary acidic protein (GFAP)] in the culture medium were assessed by Western blotting. The specificity of Aβ42 was defined by Aβ421, an intrareversal peptide.
The 90-kDa pS^2152-FLNA fragment, but not full-length (280-kDa) pS^2152-FLNA protein, appears in the medium starting at 4 hours post-Aβ42 addition and steadily increases over time. […] In addition, full-length GFAP, followed by its truncated form, appears early following Aβ1-42 exposure.

Setting [11] is: cerebrospinal fluid, baseline to Day 28, 100 mg twice daily.

T2 sequence (P21333 whole entry): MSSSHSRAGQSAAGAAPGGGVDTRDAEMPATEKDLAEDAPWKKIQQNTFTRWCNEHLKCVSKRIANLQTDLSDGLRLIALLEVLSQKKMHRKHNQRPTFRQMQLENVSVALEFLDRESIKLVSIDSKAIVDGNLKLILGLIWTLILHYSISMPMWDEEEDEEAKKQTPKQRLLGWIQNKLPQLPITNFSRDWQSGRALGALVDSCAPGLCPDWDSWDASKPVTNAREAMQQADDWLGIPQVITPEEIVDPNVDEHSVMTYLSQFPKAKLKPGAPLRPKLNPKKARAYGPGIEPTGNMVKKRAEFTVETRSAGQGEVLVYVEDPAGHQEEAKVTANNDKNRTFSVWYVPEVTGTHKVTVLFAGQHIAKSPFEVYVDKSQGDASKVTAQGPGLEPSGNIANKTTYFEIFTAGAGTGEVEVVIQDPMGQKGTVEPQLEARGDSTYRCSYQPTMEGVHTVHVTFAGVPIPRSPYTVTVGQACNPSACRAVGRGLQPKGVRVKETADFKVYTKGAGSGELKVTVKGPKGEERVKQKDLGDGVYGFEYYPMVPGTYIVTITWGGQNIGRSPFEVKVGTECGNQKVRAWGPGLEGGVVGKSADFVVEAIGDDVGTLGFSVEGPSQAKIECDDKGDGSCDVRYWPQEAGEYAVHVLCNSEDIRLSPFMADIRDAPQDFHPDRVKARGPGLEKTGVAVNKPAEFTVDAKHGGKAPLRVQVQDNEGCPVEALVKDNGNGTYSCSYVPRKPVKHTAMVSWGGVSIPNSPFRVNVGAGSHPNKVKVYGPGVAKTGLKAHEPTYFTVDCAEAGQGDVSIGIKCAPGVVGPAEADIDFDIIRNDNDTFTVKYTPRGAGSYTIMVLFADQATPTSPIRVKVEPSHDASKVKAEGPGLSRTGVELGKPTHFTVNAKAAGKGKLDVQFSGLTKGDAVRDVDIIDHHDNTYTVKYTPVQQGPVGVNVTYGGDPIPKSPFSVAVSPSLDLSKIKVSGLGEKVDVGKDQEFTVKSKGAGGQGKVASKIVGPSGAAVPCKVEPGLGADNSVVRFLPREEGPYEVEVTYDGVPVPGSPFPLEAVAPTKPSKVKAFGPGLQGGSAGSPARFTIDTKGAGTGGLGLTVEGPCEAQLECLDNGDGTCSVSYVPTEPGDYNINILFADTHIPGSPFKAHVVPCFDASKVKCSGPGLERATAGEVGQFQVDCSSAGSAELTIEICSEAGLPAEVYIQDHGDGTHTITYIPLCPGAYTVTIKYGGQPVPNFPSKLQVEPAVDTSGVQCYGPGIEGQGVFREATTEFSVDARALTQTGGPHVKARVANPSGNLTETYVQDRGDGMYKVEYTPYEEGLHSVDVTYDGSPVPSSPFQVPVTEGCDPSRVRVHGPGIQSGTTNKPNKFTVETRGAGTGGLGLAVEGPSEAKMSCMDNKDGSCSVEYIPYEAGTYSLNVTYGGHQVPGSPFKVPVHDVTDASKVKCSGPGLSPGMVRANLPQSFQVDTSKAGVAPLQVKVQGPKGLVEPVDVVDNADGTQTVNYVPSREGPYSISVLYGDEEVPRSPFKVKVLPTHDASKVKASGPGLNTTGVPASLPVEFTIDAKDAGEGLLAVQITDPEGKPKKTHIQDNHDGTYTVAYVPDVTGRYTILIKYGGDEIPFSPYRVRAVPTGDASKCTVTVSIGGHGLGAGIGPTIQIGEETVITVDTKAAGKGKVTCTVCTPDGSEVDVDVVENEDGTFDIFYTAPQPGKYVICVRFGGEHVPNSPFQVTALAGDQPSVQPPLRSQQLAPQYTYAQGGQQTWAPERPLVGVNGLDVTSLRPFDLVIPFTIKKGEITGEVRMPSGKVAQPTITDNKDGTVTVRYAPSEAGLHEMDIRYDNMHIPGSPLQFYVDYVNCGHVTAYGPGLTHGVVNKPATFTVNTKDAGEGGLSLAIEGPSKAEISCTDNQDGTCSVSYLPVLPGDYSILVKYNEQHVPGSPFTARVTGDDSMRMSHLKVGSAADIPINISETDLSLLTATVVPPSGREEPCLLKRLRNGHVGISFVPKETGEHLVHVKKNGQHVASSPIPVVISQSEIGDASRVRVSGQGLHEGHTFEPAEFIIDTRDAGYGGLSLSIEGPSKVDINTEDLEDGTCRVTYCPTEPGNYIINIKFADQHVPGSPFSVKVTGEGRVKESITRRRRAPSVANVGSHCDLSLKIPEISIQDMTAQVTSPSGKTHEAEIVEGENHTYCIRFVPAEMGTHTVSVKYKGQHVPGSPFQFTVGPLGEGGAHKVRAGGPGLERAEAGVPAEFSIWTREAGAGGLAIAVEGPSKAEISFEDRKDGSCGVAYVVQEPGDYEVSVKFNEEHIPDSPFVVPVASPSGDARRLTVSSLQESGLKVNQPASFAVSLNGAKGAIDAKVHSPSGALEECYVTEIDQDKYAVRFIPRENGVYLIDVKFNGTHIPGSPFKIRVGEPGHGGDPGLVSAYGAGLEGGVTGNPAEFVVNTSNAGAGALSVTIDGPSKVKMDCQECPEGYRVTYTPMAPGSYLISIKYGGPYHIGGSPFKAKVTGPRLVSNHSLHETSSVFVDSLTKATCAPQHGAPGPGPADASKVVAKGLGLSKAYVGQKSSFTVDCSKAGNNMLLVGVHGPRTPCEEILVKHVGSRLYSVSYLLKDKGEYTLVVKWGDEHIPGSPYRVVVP

Regarding `CN1CCC2(CC1)NCC(=O)N2Cc1ccccc1` [simufilam], in the series with cytokine release, the Cytokine release entry is “preventing”. The Biomarker response entry in [1] (13 mild-to-moderate AD patients, 100 mg oral tablet twice daily for 28 days, baseline to Day 28) was “All patients showed a biomarker response”. Also, the Aβ42 change result in [1] (baseline to Day 28, 100 mg twice daily) is “increased slightly”. In [1] (setting [11]), the “Cerebrospinal fluid biomarkers of neuroinflammation (YKL-40 and inflammatory cytokines) decrease” value is 5-14%; the “Neurofilament light chain decrease” value is reported as 22%; the Neurogranin decrease amounted to 32%; the “Phospho-tau (pT181) decrease” value worked out at 34%. In series [1] (setting [11]), this molecule registered a Total tau decrease of 20%. Further, the “Biomarker effects in plasma” value in series [1] (plasma compared with cerebrospinal fluid) was “similar”. In addition, the “Aβ42 complexes with α7-nicotinic acetylcholine receptor” value in series [2] is “significantly reduced”. Further, the “Amount of the 90 kDa FLNA polypeptide fragment in the plasma” value in series [3] (14 days into the trial) is on record as “decrease”. Further, the “Amount of the 90 kDa FLNA polypeptide fragment in the plasma” value in series [3] (28 days into the trial) is “decrease”. In addition, the Drug accumulation result in series [4] (Day 28 vs. Day 1) is “approximately 30%”. This molecule had a half-life in series [4] (human, plasma, AD patients, 100 mg oral twice daily) of 4.5 h. For the same molecule, the “Aβ42 complexes with CD14” value in the series on Aβ42 complexes with CD14 was “significantly reduced”. The “Reduction of Aβ42's femtomolar binding affinity to α7-nicotinic acetylcholine receptor” value in series [5] was 1,000 fold. Besides, the “Filamin A linkages with toll-like receptor 4” value in [6] is “significantly reduced”. The “Aberrant filamin A conformation” value on filamin A (Day 1) is 93%. The “Aberrant filamin A conformation” value on filamin A (Day 28) is given as 40%. Moreover, the “FLNA association with toll-like receptor 4 (TLR4)” value in series [7] is listed as “reducing”. Moreover, the Safety and tolerability result in [8] was “safe and well-tolerated”. For the same molecule, in [9], the “Filamin A linkages with α7-nicotinic acetylcholine receptor” value is on record as “significantly reduced”.
In the case of “Aβ42: amyloid-beta peptide generated by cleavage of amyloid precursor protein; used to induce AD-like damage in brain slices”, the “Time of first appearance of 90-kDa pS2152-FLNA fragment in the medium post-Aβ42 addition” value in series [10] is listed as 4 hours.
